# Measured values taken from patent US12560591B2, “Methods of treatment with CD8 T cell-mediated immune therapy” (Providence Health & Services—Oregon, priority 2019, dated 2026).
# Columns and labels:
# [1] = system: tumor infiltrating immune cells; assay: FACS analysis of tumor-infiltrating immune cells after LY treatment; format: in vivo, mouse
# [2] = system: CXCR3^+CD8^+ T cells; assay: FACS analysis of CXCR3^+CD8^+ T cells in CT26 tumor bearing mice; format: in vivo, mouse; conditions: preclinical modeling, 7 days treatment, FIG. 10E
# Protocol: FIGS. 10A-10E show CD8^+ T cell proliferation is suppressed by the tumor microenvironment, but TGF13 inhibition can increase tumor trafficking. […] Ki67^+CD8^+ T cells was determined by FACS analysis of lymph nodes and MC38 tumors of WT and ALK5^ΔCD8 mice (FIG. 10B).
# Flow Cytometry: For ex vivo cytokine analysis, cells were first treated with a 1× cell activation cocktail of PMA/ionomycin/Brefeldin A (Biolegend) for 5 hours in complete RPMI media. One million cells from single cell suspensions were stained with anti-CD16/CD32 Fc block (1:200, BD Biosciences) and fixable viability 700 dye (1:10,000, BD Biosciences) in 1×PBS for 15 min. at 37° C. prior to surface and intracellular staining with primary antibodies. Surface staining commenced in 200 μl FACS buffer supplemented with a 1:4 dilution of Brilliant Violet stain buffer (BD Biosciences) and fluorescently conjugated antibodies (Table 1) for 30 min at 4° C. in the dark; all are mouse reactive antibodies unless otherwise indicated. Following surface staining cells were washed and fixed in either 2% PFA or Fix/Perm buffer (eBioscience) for 20 min at 4° C. for intracellular stain. Fix/perm buffer was washed with 1× perm wash buffer (eBioscience) and intracellular proteins were stained with fluorescently conjugated ICS antibodies in perm wash buffer for 30 min. at 4° C. in the dark. […]
# [3] = system: peripheral blood CXCR3^+CD45^+CD3^+CD4^− T cells; assay: Clinical trial NCT02688712: peripheral blood CXCR3 flow cytometry, baseline vs day 15; format: in vivo, human; conditions: rectal cancer patients, after two weeks of LY2157299, majority of patients, FIG. 12C
# Excerpt: FIGS. 12A-12E are a series of panels showing TGFβ-mediated suppression of CXCR3-dependent CD8^+ T cell chemotaxis is relieved by LY2157299 in human patients with rectal cancer. […] FIG. 12B illustrates the clinical trial schema for a phase II clinical trial of rectal cancer patients and sample collection intervals. Patients receive two cycles of LY2157299 on days 1-14 and again on days 30-43 while receiving standard of care chemoradiation on days 15-57 prior to surgery. […] Patients are grouped by nodal status following neoadjuvant treatment (ypN). On the right, percent change in frequency of CXCR3^+CD3^+CD4^− T cells between days 1 and 15 is shown versus the neoadjuvant rectal (NAR) score. […] Each patient is shown (thin gray lines) along with the mean of all patients (thick black line). […] Error bars in each subpanel are standard deviations.
# Clinical trial analysis: Patients enrolled in clinical trial NCT02688712 provided consent prior to tissue collection as designed and approved in PHS IRB #15-050. […] Pathological assessment for neoadjuvant treatment response was evaluated in the surgical resection specimen including excised lymph nodes. Neoadjuvant rectal (NAR) score was calculated by the published, validated formula (George et al, Curr. Colorectal Cancer Rep. 11: 275-280): [5*ypN−3(cT−ypT)+12]^2/9.61. […]
# [4] = target: T1, ALK4 (Homo sapiens, UniProt P36896); conditions: reported in Lahn et al., Drug Des. Devel. Ther. 2015; cited from earlier work
# T1 sequence (P36896 24-505): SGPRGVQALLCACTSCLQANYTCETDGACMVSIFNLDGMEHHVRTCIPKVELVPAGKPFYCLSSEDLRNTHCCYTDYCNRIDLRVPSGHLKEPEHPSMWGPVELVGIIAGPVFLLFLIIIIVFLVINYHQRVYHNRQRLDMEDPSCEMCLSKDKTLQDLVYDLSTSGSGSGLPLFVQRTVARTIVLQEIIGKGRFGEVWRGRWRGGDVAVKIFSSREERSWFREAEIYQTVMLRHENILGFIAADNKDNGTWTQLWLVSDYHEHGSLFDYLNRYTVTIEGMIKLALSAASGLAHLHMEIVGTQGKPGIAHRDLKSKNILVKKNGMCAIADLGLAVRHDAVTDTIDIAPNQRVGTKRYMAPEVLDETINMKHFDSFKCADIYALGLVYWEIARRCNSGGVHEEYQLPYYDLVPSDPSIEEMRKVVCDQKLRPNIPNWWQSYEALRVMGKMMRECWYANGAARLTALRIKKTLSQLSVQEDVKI
# [5] = LY-treated vs vehicle animals, day 14, FIG. 8E
smiles,measurement,setting,value
Cc1cccc(-c2nn3c(c2-c2ccnc4ccc(C(N)=O)cc24)CCC3)n1 [LY2157299],tumor-infiltrating effector population (tSNE of flow cytometric data),"[1]; LY versus vehicle control treated animals, data not shown",enrichment of the tumor-infiltrating effector population
same,CD8^+ T cells infiltrating tumors,[1]; [5],more CD8^+ T cells
same,macrophages and Tregs infiltrating tumors,[1]; [5],fewer macrophages and Tregs
same,percentage of CD8^+ T cells expressing EOMES and Tbet,"[1]; spleens, lymph nodes and CT26 tumors of LY-treated mice, FIG. 8F",increase
same,CXCR3^+CD8^+ T cells following treatment,[2],increase in CXCR3^+CD8^+ T cells
same,"peripheral blood CXCR3 expression, change day 0 to day 15",[3],decrease in peripheral blood CXCR3 expression
same,Kd for ALK4 compared with ALK5,[4],lower Kd for ALK4 than ALK5
